Assay results: patent US10538496B2, “Methods using HDAC11 inhibitors” (FORMA Therapeutics, Inc., priority 2016, dated 2020)

What was measured:
NCI-H2170 cells = test: Cell proliferation assay with combination treatment (MTT); format: cell-based; conditions: H2170, combination with GDC-0449 (Vismodegib) or BMS-833923, 96 hours
Experimental: (§1) Selective HDAC11 inhibitors may be useful in combination with other targeted agents, including Jak2 inhibitors and Smoothened inhibitors. The effect of combination with the Smoothened inhibitors GDC-0449 (Vismodegib) and BMS-833923 was tested in lung cancer cell lines. A549 and NCI-H2170 cells were obtained from the ATCC. H2170 is a squamous carcinoma cell line. Cell viability was assessed using MTT reagent (Thiazolyl Blue Tetrazolium Bromide) (Sigma-Aldrich). The cells were grown in 96-well plates at a density of 3000-5000 cells/well in triplicates. The HDAC11 inhibitors were added to the adherent cells at different concentrations and treatment was carried out for 96 hours. After treatments, the cells were incubated with the 1 mg/mL MTT reagent at 37° C. for 1 hour. The reaction was terminated with DMSO that solubilizes the formazan product formed. Absorbance at 590 nm was recorded in a plate reader.

A549 cells [1] = test: as above; format: cell-based; conditions: A549, combination with GDC-0449 (Vismodegib) or BMS-833923, 96 hours
Experimental: as §1

[2] = system: myeloid cells from MPN patients; test: Colony formation assay from patient samples; format: cell-based, human; conditions: two patient samples (ET; PV, Ruxolitinib resistant)
Experimental: (§2) To determine the effects of selective HDAC11 inhibition on MPN patient samples, the effects of HDAC11 inhibitors were evaluated in a colony formation assay with erythroid or myeloid cells from MPN patients. Peripheral blood was obtained from MPN patients consented through the Moffitt Cancer Center Total Cancer Care protocol (MCC 14690). Blood was treated with HetaSep™ (STEMCELL Technologies, Inc.) to remove the majority of red blood cells. Peripheral blood mononuclear cells (PBMCs) were isolated by ficoll separation. PBMCs (1-4×105) were then plated in 1 mL of methylcellulose medium containing rhSCF, rhIL-3, and granulocyte-macrophage colony-stimulating factor (rhGM-CSF) (MethoCult™ #H4534; STEMCELL Technologies, Inc.). All drug treated samples contained 0.1% DMSO as the final concentration. Cells were incubated at 37° C. and 5% CO2 in a humidified incubator. Colonies were scored 12 to 14 days after plating.

[3] = system: erythroid cells from MPN patients; test: Colony formation assay from patient samples; format: cell-based, human; conditions: two patient samples (ET; PV, Ruxolitinib resistant)
Experimental: as §2

H1650 cells = test: QRT-PCR assay for stem cell transcription factors; format: cell-based; conditions: 72 hours
Experimental: (§3) Given the effects of HDAC11 inhibition on stem-like side population cells, the effects on the expression of stem cell transcription factors was determined using QRT-PCR. A549 or H1650 cells were plated in 60 mm cell culture dishes (120,000 cells). The next day, HDAC11 inhibitors were added at various concentrations and incubated for 72 hours. For the siRNA experiments, A549 cells were plated in 60 mm cell culture dishes (120,000 cells per dish). The siRNAs (Santa Cruz Biotechnologies sc-106896 or ThermoFisher Scientific Cat#4392420) were transfected at a concentration of 100 and 150 pmoles into cells using Oligofectamine reagent (Invitrogen) as per manufacturer's protocol. A non-targeting siRNA (Ambion AM4635) was used as a control for all the transfection experiments. The cells were harvested after 72 hours post transfection. At the end of the treatments, cells were scraped, lysed and total RNA was isolated by RNeasy miniprep kit from Qiagen following the manufacturer's protocol (RNeasy mini kit Cat No. 74104). 1 μg of RNA was converted into cDNA using iScript cDNA synthesis kit (BioRad) in a 20 μl total reaction volume. Levels of mRNA were further analyzed using quantitative real time-PCR (qRT-PCR) that was performed in CFX96 Real time system using BioRad iQ SYBR Green supermix. The reaction was set with 5 μl of SYBR Green, 1 μl of 1 μM Forward primer, 1 μl of 1 μM Reverse primer, 0.5 μl of cDNA and 4.5 μl of water in a total 12 μl reaction. Data was normalized using GAPDH as an internal control and fold change was calculated by 2^−Delta-DeltaCt method. First the Delta-Ct was calculated (Delta-Ct=Ct Gene−Ct GAPDH). Next Delta-Delta-Ct was calculated (Delta-Delta-Ct=Delta-Ct treatment−Delta-Ct control). Finally fold change was calculated by 2^−Delta-DeltaCt.

A549 cells [4] = test: QRT-PCR assay for stem cell transcription factors; format: cell-based; conditions: 72 hours
Experimental: as §3

[5] = system: NCI-H1650 side population (SP) stem-like cells; test: Sphere formation assay with stem-like side population NSCLC cells; format: cell-based; conditions: H1650 (EGFR mutation), 0.5-5.0 μM, Day 10
Experimental: (§4) In order to investigate the role of HDAC11 in the self-renewal of stem-like cancer cells, sphere formation assays were conducted with NSCLC side population (SP) stem-like cells. A549 and NCI-H1650 cells were obtained from the ATCC. Asynchronously growing A549 or NCI-H1650 cells were washed once with phosphate buffered saline (PBS) and harvested using Accutase solution (Sigma Aldrich) and resuspended in DMEM-F12K medium (Gibo, Life Technologies) with 2% fetal bovine serum (FBS) at 1×10^6 cells/ml density. The cells were incubated with 4 μg/ml of Hoechst 33342 dye (Life Technologies) for 90 min at 37° C. in the presence or absence of 1 μM Fumitremorgin C (Sigma-Aldrich) which was used as a control sample to set the gate during sorting. The Hoechst stained cells were sorted using the BD FACSAria cell sorter. The sorted SP cells were plated in 96-well ultra-low adherent plate (Corning Inc) at the cell density of 1000 cells/100 μl/well in stem cell selective medium (DMEM:F12K supplemented with N2 supplement, 10 ng/mL epidermal growth factor (EGF) and 10 ng/ml basic fibroblast growth factor (bFGF) (Sigma-Aldrich) at 37° C. for 7-10 days. The spheres were observed and acquired using EVOS FL microscope system (Life Technologies Inc., USA). The numbers of spheres greater than or equal to 50 μm were counted. To study the effect of the HDAC11 inhibitors, the appropriate concentrations of the compounds were added to the wells on Day 0 and Day 5 and the image acquisition and analysis of the spheres were performed on Day 10. The sphere formation assays were performed twice with triplicates of each treatment in every assay.

[6] = system: A549 side population (SP) stem-like cells; test: as above; format: cell-based; conditions: A549 (KRAS mutation), 0.5-5.0 μM, Day 10
Experimental: as §4

| SMILES | cell viability, combination with Smoothened inhibitors (NCI-H2170 cells) | cell viability, combination with Smoothened inhibitors (A549 cells [1]) | growth of colonies from myeloid cells [2] | growth of colonies from erythroid cells [3] | expression of Gli1 (mRNA) (H1650 cells) | expression of Sox2 (mRNA) (H1650 cells) | expression of Yap1 (mRNA) (H1650 cells) | expression of Gli1 (mRNA) (A549 cells [4]) | expression of Sox2 (mRNA) (A549 cells [4]) | expression of Yap1 (mRNA) (A549 cells [4]) | growth of stem-like cancer cells (sphere formation) [5] | growth of stem-like cancer cells (sphere formation) [6] |
| --- | --- | --- | --- | --- | --- | --- | --- | --- | --- | --- | --- | --- |
| O=C(NO)c1cccc(Nc2nc3cc(Cl)c(Cl)cc3o2)c1 [HDTK010, 3-((5,6-dichlorobenzo[d]oxazol-2-yl)amino)-N-hydroxybenzamide] | decreased cell viability | decreased cell viability | reduced the growth of colonies | reduced the growth of colonies | decreased expression | decreased expression | decreased expression | decreased expression | decreased expression | decreased expression | prevented growth | prevented growth |
| O=C(NO)c1cccc2c1C[C@]1(CCN(Cc3ccc(Cl)c(C(F)(F)F)c3)C1=O)C2 [HDTK054, (S)-1′-(4-chloro-3-(trifluoromethyl)benzyl)-N-hydroxy-2′-oxo-1,3-dihydrospiro[indene-2,3′-pyrrolidine]-4-carboxamide] | decreased cell viability | decreased cell viability |  |  | decreased expression | decreased expression | decreased expression | decreased expression | decreased expression | decreased expression | prevented growth | prevented growth |
